Experiments:
Format in all cases: cell-based
[1] = system: Klebsiella pneumonia; assay: MIC against Gram-negative bacteria: Klebsiella pneumonia; conditions: 5×10^5 CFU/mL
Summary of the method: (§1)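 LB broth cultures at McFarland 0.5, spun down, resuspended, diluted to 5×10^5 CFU/mL final. Two-fold serial dilutions of purified human EGF domain proteins, triplicate. 37° C, 175 rpm shaking. Endpoint: no visible growth.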

[2] = system: Proteus mirabilis; assay: MIC against Gram-negative bacteria: Proteus mirabilis; conditions: 5×10^5 CFU/mL
Summary of the method: as §1

[3] = system: Citrobacter diversus; assay: MIC against Gram-negative bacteria: Citrobacter diversus; conditions: 5×10^5 CFU/mL
Summary of the method: as §1

[4] = system: E. coli DH5α; assay: Antibacterial activity: MIC and growth curve against E. coli DH5α in 96-well plate; conditions: minimal inhibitory concentration against E. coli DH5α; 96-well plate, 5×10^5 CFU/mL, 37° C., judged after 8 h
Summary of the method: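 Log-phase DH5α (OD600 about 0.5, 37° C, 185 rpm in LB) was pelleted, resuspended in fresh LB and seeded at 5×10^5 CFU/mL with recombinant protein at 50, 25 and 12.5 μg/mL (two-fold series), in triplicate. Plates were shaken at 175 rpm, 37° C, and OD600 was read every 30 min. MIC was the lowest concentration with no growth.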

[5] = system: Proteus vulgaris; assay: MIC against Gram-negative bacteria: Proteus vulgaris; conditions: 5×10^5 CFU/mL
Summary of the method: as §1

[6] = system: Serratia marcescens; assay: MIC against Gram-negative bacteria: Serratia marcescens; conditions: 5×10^5 CFU/mL
Summary of the method: as §1

[7] = system: E. coli BL21; assay: MIC against Gram-negative bacteria: E. coli BL21; conditions: 5×10^5 CFU/mL
Summary of the method: as §1

[8] = system: Pseudomonas aeruginosa; assay: MIC against Gram-negative bacteria: Pseudomonas aeruginosa; conditions: 5×10^5 CFU/mL
Summary of the method: as §1

[9] = system: Enterobacter cloacae; assay: MIC against Gram-negative bacteria: Enterobacter cloacae; conditions: 5×10^5 CFU/mL
Summary of the method: as §1

[10] = system: Aeromonas hydrophila; assay: MIC against Gram-negative bacteria: Aeromonas hydrophila; conditions: 5×10^5 CFU/mL
Summary of the method: as §1

[11] = system: Moraxella catarrhalis; assay: MIC against Gram-negative bacteria: Moraxella catarrhalis; conditions: 5×10^5 CFU/mL
Summary of the method: as §1

[12] = E. coli BL21, 10 h cultivation at 37° C.

| Substance | MIC against K. pneumonia ([1]; 96-well plate, 37° C., 10 h) [µg/mL] | MIC against P. mirabilis ([2]; 96-well plate, 37° C., 10 h) [µg/mL] | MIC against C. diversus ([3]; 96-well plate, 37° C., 10 h) [µg/mL] | MIC [4] [µg/mL] | MIC against P. vulgaris ([5]; 96-well plate, 37° C., 10 h) [µg/mL] | MIC against S. marcescens ([6]; 96-well plate, 37° C., 10 h) [µg/mL] | MIC against E. coli BL21 ([7]; 96-well plate, 37° C., 10 h) [µg/mL] | MIC against P. aeruginosa ([8]; 96-well plate, 37° C., 10 h) [µg/mL] | MIC against E. cloacae ([9]; 96-well plate, 37° C., 10 h) [µg/mL] | MIC against A. hydrophila ([10]; 96-well plate, 37° C., 10 h) [µg/mL] | MIC against M. catarrhalis ([11]; 96-well plate, 37° C., 10 h) [µg/mL] | also measured |
| --- | --- | --- | --- | --- | --- | --- | --- | --- | --- | --- | --- | --- |
| PRT470 (KCPQPCRNGGKCIGKSKCKCSKGYQGDLCS; listed as Homo sapiens) | 12.5 | 50 | 12.5 | 50 | 12.5 | 50 | 12.5 | 50 | 50 | 25 | 25 | – |
| PRT163 (EYNECLSAPCLNAATCRDLVNGYECVCLAEYKGTHCE; listed as Homo sapiens) | – | – | – | 12.5 | – | – | – | – | – | – | – | MIC (μg/mL) K. pneumonia ([1]; K. pneumonia, 10 h cultivation at 37° C.): 25 µg/mL; MIC (μg/mL) P. mirabilis ([2]; P. mirabilis, 10 h cultivation at 37° C.): 50 µg/mL; MIC (μg/mL) C. diversus ([3]; C. diversus, 10 h cultivation at 37° C.): 12.5 µg/mL; MIC (μg/mL) P. vulgaris ([5]; P. vulgaris, 10 h cultivation at 37° C.): 25 µg/mL; MIC (μg/mL) S. marcescens ([6]; S. marcescens, 10 h cultivation at 37° C.): 12.5 µg/mL; MIC (μg/mL) E. coli BL21 [7, 12]: 25 µg/mL; MIC (μg/mL) P. aeruginosa ([8]; P. aeruginosa, 10 h cultivation at 37° C.): 12.5 µg/mL; MIC (μg/mL) E. cloacae ([9]; E. cloacae, 10 h cultivation at 37° C.): 12.5 µg/mL; MIC (μg/mL) A. hydrophila ([10]; A. hydrophila, 10 h cultivation at 37° C.): 25 µg/mL; MIC (μg/mL) M. catarrhalis ([11]; M. catarrhalis, 10 h cultivation at 37° C.): 25 µg/mL |
| PRT1388 (RDSCPVLCGGNGEYEKGHCVCRHGWKGPECDV; listed as Homo sapiens) | – | – | – | 100 | – | – | – | – | – | – | – | MIC against K. pneumonia ([1]; Klebsiella pneumonia, 10 h cultivation at 37° C.): 12.5 µg/mL; MIC against P. mirabilis ([2]; Proteus mirabilis, 10 h cultivation at 37° C.): 12.5 µg/mL; MIC against C. diversus ([3]; Citrobacter diversus, 10 h cultivation at 37° C.): 12.5 µg/mL; MIC against P. vulgaris ([5]; Proteus vulgaris, 10 h cultivation at 37° C.): 12.5 µg/mL; MIC against S. marcescens ([6]; Serratia marcescens, 10 h cultivation at 37° C.): 12.5 µg/mL; MIC against E. coli BL21 [7, 12]: 12.5 µg/mL; MIC against P. aeruginosa ([8]; Pseudomonas aeruginosa, 10 h cultivation at 37° C.): 12.5 µg/mL; MIC against E. cloacae ([9]; Enterobacter cloacae, 10 h cultivation at 37° C.): 12.5 µg/mL; MIC against A. hydrophila ([10]; Aeromonas hydrophila, 10 h cultivation at 37° C.): 25 µg/mL; MIC against M. catarrhalis ([11]; Moraxella catarrhalis, 10 h cultivation at 37° C.): 25 µg/mL |
| PRT448 (SFRCQCEPGFQLGPNNRSCVDVNE; listed as Homo sapiens) | 50 | 25 | 25 | 12.5 | 50 | 12.5 | 50 | 100 | 12.5 | 50 | 12.5 | – |
| PRT522 (CVCNGHAEVCNINNPEKLFRCECQHHTCGETCDRCCTGYNQRRWRPAAWEQSHECEA; listed as Homo sapiens) | 12.5 | 25 | 25 | 25 | 50 | 25 | 50 | 25 | 25 | 50 | 12.5 | – |

Source: patent publication US9833497B2, “Human originated EGF domain proteins and use of the same” (CHENGDU SOURCEBIO LIMITED-LIABILITY COMPANY, priority 2013, dated 2017)
